Laboratory results: the supplement of paper PMC6045584
± gives the standard deviation of the averaged measurements.

Assays:
MLN-4924 = compound: NS(=O)(=O)OC[C@@H]1C[C@@H](n2ccc3c(N[C@H]4CCc5ccccc54)ncnc32)C[C@@H]1O [MLN-4924]; assay: surviving fraction relative to DMSO-only wells; higher = less growth inhibition; conditions: exposure time: 5 days
In short: (§1)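 Inhibitors at 0.5, 1, 5, 10, 50, 100, 500 and 1000 nM were applied continuously for five days to tumour cell lines seeded in log phase at 250–500 cells per well in 384-well plates 24 hours earlier. Viability was measured by CellTiter-Glo luminescence and expressed as surviving fraction relative to the median of DMSO-only wells. Luminescence was taken after 10 minutes at room temperature.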

[1] = compound: COc1cc2ncnc(Nc3ccc(F)c(Cl)c3)c2cc1NC(=O)/C=C/CN1CCCCC1; assay: as above; conditions: exposure time: 5 days
In short: as §1

Test System | surviving fraction (MLN-4924; 0.5 nM) | surviving fraction (MLN-4924; 1 nM) | surviving fraction (MLN-4924; 5 nM) | surviving fraction (MLN-4924; 10 nM) | surviving fraction (MLN-4924; 50 nM) | surviving fraction (MLN-4924; 100 nM) | surviving fraction (MLN-4924; 500 nM) | surviving fraction (MLN-4924; 1000 nM) | surviving fraction ([1]; 0.5 nM) | surviving fraction ([1]; 1 nM) | surviving fraction ([1]; 5 nM) | surviving fraction ([1]; 10 nM) | surviving fraction ([1]; 50 nM) | surviving fraction ([1]; 100 nM) | surviving fraction ([1]; 500 nM) | surviving fraction ([1]; 1000 nM)
MDAMB436 BREAST | 0.946 ± 0.13 | 0.962 ± 0.082 | 0.961 ± 0.097 | 0.952 ± 0.13 | 0.555 ± 0.053 | 0.427 ± 0.037 | 0.272 ± 0.025 | 0.256 ± 0.016 | 0.922 ± 0.08 | 0.975 ± 0.077 | 0.895 ± 0.021 | 0.971 ± 0.17 | 0.996 ± 0.053 | 0.89 ± 0.11 | 0.771 ± 0.065 | 0.706 ± 0.085
MDAMB453 BREAST | 1.1 ± 0.038 | 1.08 ± 0.056 | 1.07 ± 0.07 | 1.1 ± 0.066 | 0.589 ± 0.019 | 0.493 ± 0.034 | 0.363 ± 0.045 | 0.304 ± 0.017 | 1.05 ± 0.021 | 1.04 ± 0.08 | 1.03 ± 0.1 | 1.09 ± 0.093 | 1.07 ± 0.044 | 0.887 ± 0.048 | 0.705 ± 0.033 | 0.509 ± 0.069
MDAMB468 BREAST | 1.15 ± 0.068 | 1.09 ± 0.062 | 1.13 ± 0.1 | 1.04 ± 0.11 | 0.436 ± 0.0053 | 0.302 ± 0.05 | 0.18 ± 0.0087 | 0.178 ± 0.021 | 0.997 ± 0.094 | 1.04 ± 0.033 | 0.8783 ± 0.0035 | 0.854 ± 0.063 | 0.626 ± 0.013 | 0.676 ± 0.035 | 0.438 ± 0.016 | 0.286 ± 0.014
MFM223 BREAST | 1.43 ± 0.45 | 1.47 ± 0.56 | 1.33 ± 0.39 | 1.16 ± 0.56 | 0.586 ± 0.066 | 0.42 ± 0.032 | 0.181 ± 0.022 | 0.152 ± 0.062 | 1.094 ± 0.01 | 1.09 ± 0.042 | 1.14 ± 0.073 | 1.15 ± 0.072 | 1.2 ± 0.078 | 1.19 ± 0.06 | 0.914 ± 0.06 | 0.587 ± 0.055
MG63 BONE | 1.03 ± 0.057 | 1.02 ± 0.046 | 1.07 ± 0.042 | 1.13 ± 0.054 | 0.4 ± 0.058 | 0.031 ± 0.0046 | 0.0287 ± 0.005 | 0.0287 ± 0.0023 | 1.04 ± 0.072 | 1 ± 0.049 | 1.05 ± 0.033 | 1.06 ± 0.062 | 1.04 ± 0.056 | 1.03 ± 0.08 | 0.911 ± 0.039 | 0.89 ± 0.073
MHM BONE | 0.973 ± 0.011 | 0.995 ± 0.024 | 1.04 ± 0.035 | 1.09 ± 0.038 | 1.37 ± 0.02 | 1.36 ± 0.015 | 0.39 ± 0.042 | 0.286 ± 0.015 | 1.01 ± 0.044 | 0.998 ± 0.021 | 1.02 ± 0.025 | 0.998 ± 0.032 | 1.01 ± 0.011 | 1.03 ± 0.024 | 0.974 ± 0.011 | 0.926 ± 0.016
NCIH441 LUNG | 1.08 ± 0.077 | 1.15 ± 0.099 | 1.11 ± 0.087 | 1.12 ± 0.03 | 1.01 ± 0.051 | 0.846 ± 0.11 | 0.431 ± 0.033 | 0.414 ± 0.022 | 1.08 ± 0.13 | 1.04 ± 0.041 | 1.05 ± 0.073 | 1.06 ± 0.04 | 0.981 ± 0.038 | 0.859 ± 0.12 | 0.689 ± 0.051 | 0.5 ± 0.013
NOS1 BONE | 0.988 ± 0.11 | 1.02 ± 0.11 | 1.23 ± 0.23 | 1.29 ± 0.21 | 1.22 ± 0.1 | 1.04 ± 0.14 | 0.637 ± 0.083 | 0.506 ± 0.033 | 1.1 ± 0.045 | 1.15 ± 0.077 | 1.14 ± 0.051 | 1.17 ± 0.094 | 1.12 ± 0.16 | 0.968 ± 0.033 | 0.26 ± 0.011 | 0.135 ± 0.012
NY BONE | 1.05 ± 0.024 | 1.03 ± 0.02 | 1.18 ± 0.036 | 1.2 ± 0.04 | 0.82 ± 0.073 | 0.48 ± 0.0085 | 0.289 ± 0.0061 | 0.232 ± 0.0095 | 0.99 ± 0.014 | 0.975 ± 0.032 | 1.05 ± 0.032 | 1.01 ± 0.071 | 1.04 ± 0.044 | 1 ± 0.051 | 0.756 ± 0.011 | 0.514 ± 0.01
OS25HAL BONE | 1.05 ± 0.029 | 1.05 ± 0.017 | 1.11 ± 0.034 | 0.982 ± 0.02 | 0.773 ± 0.041 | 0.533 ± 0.06 | 0.181 ± 0.01 | 0.102 ± 0.016 | 0.995 ± 0.013 | 0.972 ± 0.011 | 1.02 ± 0.032 | 0.981 ± 0.0017 | 1.05 ± 0.044 | 1.07 ± 0.015 | 1.012 ± 0.0087 | 0.964 ± 0.011
OSHN BONE | 1.09 ± 0.016 | 1.079 ± 0.01 | 1.15 ± 0.026 | 1.087 ± 0.0023 | 0.733 ± 0.018 | 0.565 ± 0.045 | 0.274 ± 0.028 | 0.258 ± 0.054 | 1.07 ± 0.034 | 1.06 ± 0.044 | 1.08 ± 0.033 | 1.05 ± 0.035 | 1.1 ± 0.037 | 1.1 ± 0.027 | 1.06 ± 0.047 | 1.029 ± 0.0075
PCI30 HEADNECK | 1.01 ± 0.028 | 1.01 ± 0.072 | 1.04 ± 0.023 | 0.939 ± 0.027 | 0.724 ± 0.028 | 0.701 ± 0.056 | 0.414 ± 0.015 | 0.377 ± 0.019 | 0.985 ± 0.029 | 1.01 ± 0.087 | 0.649 ± 0.07 | 0.551 ± 0.078 | 0.393 ± 0.01 | 0.392 ± 0.013 | 0.194 ± 0.035 | 0.0737 ± 0.0085
RDES SOFT TISSUE | 1.24 ± 0.12 | 1.11 ± 0.22 | 1.29 ± 0.17 | 1.26 ± 0.081 | 0.952 ± 0.018 | 0.687 ± 0.067 | 0.0467 ± 0.0025 | 0.0413 ± 0.0021 | 1.27 ± 0.17 | 1.28 ± 0.086 | 1.28 ± 0.059 | 1.33 ± 0.18 | 1.28 ± 0.2 | 1.23 ± 0.13 | 1.23 ± 0.15 | 1.22 ± 0.1
S68 BREAST | 0.837 ± 0.21 | 0.964 ± 0.11 | 0.764 ± 0.18 | 1.07 ± 0.19 | 0.6 ± 0.074 | 0.326 ± 0.05 | 0.172 ± 0.024 | 0.105 ± 0.007 | 0.768 ± 0.15 | 1.01 ± 0.15 | 1.03 ± 0.27 | 0.764 ± 0.12 | 0.701 ± 0.085 | 0.667 ± 0.14 | 0.603 ± 0.033 | 0.256 ± 0.024
SAOS2 BONE | 1.14 ± 0.096 | 1.1 ± 0.082 | 1.13 ± 0.057 | 1.1 ± 0.069 | 0.313 ± 0.03 | 0.095 ± 0.0095 | 0.038 ± 0.0017 | 0.0377 ± 0.0015 | 1.17 ± 0.02 | 1.14 ± 0.017 | 1.14 ± 0.038 | 1.13 ± 0.07 | 1.1 ± 0.062 | 1.13 ± 0.064 | 0.762 ± 0.044 | 0.513 ± 0.028
SCC003 HEADNECK | 1.14 ± 0.039 | 1.1 ± 0.016 | 1.11 ± 0.028 | 1.11 ± 0.048 | 1.11 ± 0.14 | 0.988 ± 0.041 | 0.526 ± 0.037 | 0.375 ± 0.037 | 1.01 ± 0.031 | 0.95 ± 0.19 | 0.845 ± 0.11 | 0.861 ± 0.082 | 0.554 ± 0.072 | 0.535 ± 0.079 | 0.405 ± 0.053 | 0.356 ± 0.031
SCC36 HEADNECK | 1.06 ± 0.18 | 0.955 ± 0.11 | 1.13 ± 0.061 | 1.14 ± 0.09 | 0.544 ± 0.12 | 0.259 ± 0.029 | 0.0483 ± 0.0085 | 0.047 ± 0.002 | 0.84 ± 0.054 | 0.889 ± 0.024 | 0.656 ± 0.059 | 0.618 ± 0.0085 | 0.432 ± 0.014 | 0.424 ± 0.057 | 0.338 ± 0.022 | 0.235 ± 0.013
SCC47 HEADNECK | 1.12 ± 0.028 | 1.1 ± 0.11 | 1.06 ± 0.016 | 1.07 ± 0.022 | 0.717 ± 0.053 | 0.51 ± 0.05 | 0.307 ± 0.025 | 0.263 ± 0.024 | 0.927 ± 0.031 | 0.976 ± 0.041 | 0.804 ± 0.1 | 0.745 ± 0.028 | 0.625 ± 0.026 | 0.59 ± 0.025 | 0.512 ± 0.031 | 0.375 ± 0.039
SCC90 HEADNECK | 1.09 ± 0.27 | 1.04 ± 0.042 | 1.04 ± 0.099 | 0.541 ± 0.0053 | 0.212 ± 0.033 | 0.167 ± 0.01 | 0.144 ± 0.018 | 0.16 ± 0.032 | 0.948 ± 0.041 | 0.938 ± 0.039 | 0.647 ± 0.1 | 0.608 ± 0.018 | 0.388 ± 0.017 | 0.4 ± 0.024 | 0.377 ± 0.066 | 0.294 ± 0.023
